According to the supplement of paper PMC10307832:

Experiments:
Experiment in all cases: relative viability (nuclei count vs DMSO), 5 days (fraction); higher = more cells survive
IU1-47 + Palbociclib = compound: CC1=CC(=C(N1C2=CC=C(C=C2)Cl)C)C(=O)CN3CCCCC3 [IU1-47] + CC(=O)c1c(C)c2cnc(Nc3ccc(N4CCNCC4)cn3)nc2n(C2CCCC2)c1=O [Palbociclib] (partner 0.5 µM)
Method in brief: (§1)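 Five library-drug doses in √10 steps were combined with a fixed anchor-drug dose, or a single drug was given alone, by pin tool to lung cancer cell lines in 1536-well plates the day after seeding. Nuclei were stained and counted after 5 days. Relative viability is the nuclei count in treated wells over that in vehicle wells, taken as the median of duplicate plates.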

IU1-47 + Navitoclax = compound: CC1=CC(=C(N1C2=CC=C(C=C2)Cl)C)C(=O)CN3CCCCC3 [IU1-47] + CC1(C)CCC(c2ccc(Cl)cc2)=C(CN2CCN(c3ccc(C(=O)NS(=O)(=O)c4ccc(N[C@H](CCN5CCOCC5)CSc5ccccc5)c(S(=O)(=O)C(F)(F)F)c4)cc3)CC2)C1 [Navitoclax] (partner 0.5 µM)
Method in brief: as §1

FG-4592 + Linsitinib = compound: Cc1nc(C(=O)NCC(=O)O)c(O)c2ccc(Oc3ccccc3)cc12 [FG-4592] + C[C@]1(O)C[C@@H](c2nc(-c3ccc4ccc(-c5ccccc5)nc4c3)c3c(N)nccn32)C1 [Linsitinib] (partner 1 µM)
Method in brief: as §1

FG-4592 + Crizotinib = compound: Cc1nc(C(=O)NCC(=O)O)c(O)c2ccc(Oc3ccccc3)cc12 [FG-4592] + C[C@@H](Oc1cc(-c2cnn(C3CCNCC3)c2)cnc1N)c1c(Cl)ccc(F)c1Cl [Crizotinib] (partner 1 µM)
Method in brief: as §1

Cell Line	relative viability (IU1-47 + Palbociclib; first compound 0.08 µM)	relative viability (IU1-47 + Palbociclib; first compound 0.253 µM)	relative viability (IU1-47 + Palbociclib; first compound 0.8 µM)	relative viability (IU1-47 + Palbociclib; first compound 2.53 µM)	relative viability (IU1-47 + Palbociclib; first compound 8 µM)	relative viability (IU1-47 + Navitoclax; first compound 0.08 µM)	relative viability (IU1-47 + Navitoclax; first compound 0.253 µM)	relative viability (IU1-47 + Navitoclax; first compound 0.8 µM)	relative viability (IU1-47 + Navitoclax; first compound 2.53 µM)	relative viability (IU1-47 + Navitoclax; first compound 8 µM)	relative viability (FG-4592 + Linsitinib; first compound 0.08 µM)	relative viability (FG-4592 + Linsitinib; first compound 0.253 µM)	relative viability (FG-4592 + Linsitinib; first compound 0.8 µM)	relative viability (FG-4592 + Linsitinib; first compound 2.53 µM)	relative viability (FG-4592 + Linsitinib; first compound 8 µM)	relative viability (FG-4592 + Crizotinib; first compound 0.08 µM)	relative viability (FG-4592 + Crizotinib; first compound 0.253 µM)	relative viability (FG-4592 + Crizotinib; first compound 0.8 µM)	relative viability (FG-4592 + Crizotinib; first compound 2.53 µM)	relative viability (FG-4592 + Crizotinib; first compound 8 µM)
NCI-H2126	0.392	0.352	0.359	0.364	0.395	0.987	0.823	0.897	0.545	0.809	0.68	0.73	0.593	0.699	0.655	0.989	1.01	1.04	1	1.03
NCI-H2228	0.715	0.807	0.897	0.689	0.575	0.871	0.97	1.69	0.659	0.832	0.586	0.628	0.795	0.612	0.727	0.592	0.279	0.522	0.437	0.554
NCI-H2347	0.39	0.474	0.436	0.43	0.438	0.964	0.888	0.912	0.874	0.802	1.09	–	0.822	0.927	1.01	0.668	–	0.58	0.724	0.874
NCI-H2405	0.539	0.593	0.531	0.539	0.506	1.02	0.902	0.862	–	0.897	–	0.583	0.884	0.801	0.72	0.665	0.657	0.878	0.857	0.87
NCI-H3122	0.186	0.189	0.18	0.275	0.212	1.02	0.966	1.02	1.01	1	0.95	1.03	1.07	1.02	0.816	0.277	0.271	0.26	0.3	0.255
PC-3 [JPC-3]	0.562	0.531	0.602	0.546	0.559	0.834	0.817	0.804	–	0.788	0.965	0.974	0.969	1.04	1.01	1	0.905	1.12	0.98	0.988
PC-14	0.547	0.69	0.635	0.675	0.419	1.22	1.14	1.16	1.06	0.932	0.977	0.941	1	0.991	0.891	0.893	0.863	1.02	0.961	0.922
RERF-LC-KJ	1.32	1.18	1.04	1.16	1.07	0.939	0.812	0.839	1.14	0.879	0.835	0.958	0.919	0.901	0.82	0.798	0.8	0.849	0.837	0.771
SK-LU-1	0.387	0.411	0.445	0.4	0.378	0.853	0.855	0.819	0.839	0.847	1.02	0.89	0.971	–	0.928	0.806	0.731	0.912	–	0.968
SK-MES-1	0.282	0.332	0.292	0.34	0.273	1.21	1.34	1.27	1.29	1.17	1.07	0.895	1.06	1.07	0.957	0.913	0.854	1	1.03	1
SW 1573	0.357	0.385	0.379	0.509	0.31	1.03	1.14	1.04	0.893	1.09	0.732	0.714	0.893	0.721	0.782	0.664	0.7	0.71	1	0.632
